Values joined by “and” are separate entries in the source; they are usually repeats but may differ in a detail not shown here. Equal values may be shown once. Read-outs that look alike come from different tables or passages of the source.
What was measured:
lymph nodes = test: Amount of EB dye in lymph nodes after local co-injection of 18F-AlF-NEB and EB; conditions: ex vivo
Experimental: Ninety min after local injection, both popliteal LN sites could be distinguished clearly by the apparent blue color, indicating the local accumulation of the dye molecules. The left sciatic LNs could also be seen but with much lower uptake of dye (FIGS. 19A and 19B). There was significant difference in weight between the popliteal LNs on the tumor side and the contralateral side but not between the sciatic LNs (popliteal LNs: 3.582±0.762 vs. 1.995±0.759 mg, p<0.05; sciatic LNs: 1.558±0.731 vs. 1.403±0.632 mg, p>0.05) (FIG. 20). […] However, there was no difference in the amount of EB between two sciatic LNs (0.030±0.008 μg vs. 0.028±0.015 μg, p>0.05). These ex vivo results were consistent with in vivo PET data.

albumin [1] = molecular target: T1, albumin (Homo sapiens, UniProt P02768); test: Absorbance and fluorescence emission of Evans blue with and without albumin; type: physicochemical
Source text: FIGS. 1A and 1B show the absorbance and fluorescence emission of Evans blue with and without albumin. […] Evans blue is almost not fluorescent without albumin.
After forming a complex with serum albumin, both NEB and EB became fluorescent. Since only trace amount of NEB was mixed with EB, the majority of the fluorescence came from EB. […] With optical imaging, the migration of the injected EB/NEB in lymphatics could be clearly observed after local injection. The fluorescence signal first reached the popliteal LN then migrated to the sciatic LN (FIG. 22). Ninety min after tracer injection, both LNs were clearly visualized by fluorescence optical imaging. Under bright light, apparent blue dye accumulation could also be seen by the naked eye (FIGS. 23A and 23B). PET and optical imaging were also performed with the same animal after injection of ^18F-AlF-NEB/EB. An overlay of the two images provided high positional correlation of the LNs (FIGS. 24A and 24B).

platelet aggregation = conditions: cited from earlier work
albumin [2] = molecular target: T1, albumin; test: Saturation binding assay of NEB with albumin (bound/unbound separated by agarose gel electrophoresis); conditions: unbound NEB quantified, read-out: dissociation constant (Kd) of NEB to albumin
Source text: In a particular embodiment, the compound of formula (I) (also referred to herein as “NEB”) wherein n is 0 can be synthesized in two steps starting from o-tolidine as shown in Scheme 1. 1, 4, 7-triazacyclononane-N,N,N″-triacetic acid-3HCl (“NOTA”) was first coupled to o-tolidine using diethyl cyanophosphonate to give NOTA-o-tolidine in 26% yield after preparative reversed-phase HPLC. NOTA-o-tolidine was then coupled to 1-amino-8-naphthol-2,4-disulfonic acid to give NEB through the formation of diazonium salt with a yield of 46.6%. The purity of the product was >98% based on HPLC analysis and the identity of the product was confirmed by LC-MS. This truncated version of Evans blue retained the binding ability with albumin since stable NEB/albumin complex was confirmed by LC/MS. The complex formation was also confirmed by saturation binding assay. The bound NEB could be separated from the unbound NEB using agarose gel electrophoresis. […] The ^18F-AlF complex of NEB is also referred to herein as ^18F-AlF-NEB. The ^64CU complex of NEB is also referred to herein as ^64Cu-NEB.

UM-22B tumors = system: UM-22B tumors; parameters: species or system mice; conditions: female, athymic nude, mouse, in vivo
Experimental: All animal studies were conducted in accordance with the principles and procedures outlined in the Guide for the Care and Use of Laboratory Animals and were approved by the Institutional Animal Care and Use Committee of the Clinical Center, NIH. The UM-22B human head and neck carcinoma cancer cell line was grown in DMEM medium supplemented with 10% fetal bovine serum (FBS), 100 IU/mL penicillin, and 100 μg/mL streptomycin (Invitrogen), and in a humidified atmosphere containing 5% CO2 at 37° C. The tumor model was developed in 5 to 6 week old female athymic nude mice (Harlan Laboratories) by injection of 5×10^6 cells into their right shoulders. The mice underwent small-animal PET studies when the tumor volume reached 100-300 mm^3 (2-3 weeks after inoculation).
PET scans and image analysis were performed using an Inveon small animal PET scanner (Siemens Medical Solutions). About 3.7 MBq of ^18F-AlF-NEB or ^18F-FB-Albumin or 7.4 MBq of ^64Cu-NEB was administered via tail vein injection under isoflurane anesthesia. For normal mice, 60-min dynamic PET scans were acquired. For tumor mice, 60-min dynamic PET scans were acquired, followed by a series of late time point scans at 2, 4, and 24 h (^64Cu only) after tracer injection. With acute inflammation model, 5-min static PET images were acquired at 30 min, 1 h and 2 h postinjection (n=3-5 per group). The images were reconstructed using a two-dimensional ordered-subset expectation maximum (2D OSEM) algorithm, and no correction was applied for attenuation or scatter. For each scan, regions of interest (ROIs) were drawn using vendor software (ASI Pro 5.2.4.0) on decay-corrected whole-body coronal images. The radioactivity concentrations (accumulation) within the heart, muscle, liver, and kidneys were obtained from mean pixel values within the multiple ROI volume and then converted to MBq per milliliter. These values were then divided by the administered activity to obtain (assuming a tissue density of 1 g/ml) an image-ROI-derived percent injected dose per gram (% ID/g).
Malignant tumors are characterized by torturous blood vessels and high vascular permeability. Besides, the anti-angiogenesis and “normalization” of tumor vasculature have been intensively investigated. Unlike radiolabeled RBCs, albumin can be used to study vascular permeability in tumors. NEB was labeled with ^64Cu, a positron emitter with longer half-life (t1/1=12.6 h) than ^18F (t1/2=109.8 min). A UM-22B xenograft model was developed and performed 60-min dynamic scan and then static scans at late time points up to 24 h. The in vivo distribution of ^64Cu-NEB was very similar to that of ^18F-AlF-NEB with most of radioactivity retained in the circulation system (FIG. 4A). Even at 4 h after tracer injection, radioactivity within heart region and major vessels was still dominant. […] At 24 h after tracer injection, the tumor uptake was still at a relatively high level (8.07±1.01% ID/g). The tracer uptake over the heart region was 16.09±0.51% ID/g at 1 h p.i., which dropped to 8.58±0.81% ID/g at 24 h (FIG. 5B).

[3] = human, in vivo
Experimental: A dosimetry study was also performed based on the PET imaging data.

[4] = ninety min after local injection

T1 sequence (P02768 25-609, species assumed): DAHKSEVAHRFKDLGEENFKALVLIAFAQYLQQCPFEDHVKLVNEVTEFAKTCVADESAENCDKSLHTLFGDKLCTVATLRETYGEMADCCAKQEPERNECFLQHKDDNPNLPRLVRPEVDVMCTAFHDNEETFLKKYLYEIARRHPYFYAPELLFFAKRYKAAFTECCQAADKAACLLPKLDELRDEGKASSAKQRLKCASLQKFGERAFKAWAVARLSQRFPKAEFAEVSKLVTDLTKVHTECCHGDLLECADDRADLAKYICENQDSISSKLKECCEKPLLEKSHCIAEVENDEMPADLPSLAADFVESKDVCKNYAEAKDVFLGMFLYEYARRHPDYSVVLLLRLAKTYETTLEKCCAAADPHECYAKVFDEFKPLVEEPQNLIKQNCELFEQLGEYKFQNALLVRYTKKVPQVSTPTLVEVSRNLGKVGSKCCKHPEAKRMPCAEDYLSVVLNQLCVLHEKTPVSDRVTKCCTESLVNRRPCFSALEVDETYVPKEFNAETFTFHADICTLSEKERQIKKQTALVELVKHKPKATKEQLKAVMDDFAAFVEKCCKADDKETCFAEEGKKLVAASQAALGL

Cc1cc(-c2ccc(/N=N/c3ccc4c(S(=O)(=O)O)cc(S(=O)(=O)O)c(N)c4c3O)c(C)c2)ccc1/N=N/c1ccc2c(S(=O)(=O)O)cc(S(=O)(=O)O)c(N)c2c1O [EB, Evans blue]
amount of EB in sciatic LNs, first value of the pair (lymph nodes; presumably left side): 0.030 ± 0.008 µg
amount of EB in sciatic LNs, second value of the pair (lymph nodes; presumably right side): 0.028 ± 0.015 µg
amount of EB dye in left popliteal LNs (lymph nodes; [4]): 0.144 ± 0.034 µg
amount of EB dye in right popliteal LNs (lymph nodes; [4]): 0.091 ± 0.029 µg
fluorescence emission peak (albumin [1]; only with albumin): 680 nm
absorbance peak (albumin [1]; with or without albumin): 620 nm
threshold concentration for induction of platelet aggregation (platelet aggregation): about 100 μM

Cc1cc(-c2ccc(NC(=O)CN3CCN(CC(=O)O)CCN(CC(=O)O)CC3)c(C)c2)ccc1N=Nc1ccc2c(S(=O)(=O)O)cc(S(=O)(=O)O)c(N)c2c1O [NEB]
Kd (albumin [2]): 48.9 µM and ~50 µM

Cc1cc(-c2ccc(NC(=O)CN3CCN4CCN(CC3)CC(=O)[O][64Cu][O]C(=O)C4)c(C)c2)ccc1N=Nc1ccc2c(S(=O)(=O)O)cc(S(=O)(=O)O)c(N)c2c1O [^64Cu-NEB]
tracer uptake over the heart region (UM-22B tumors; 1 h): 16.09±0.51 % ID/g
tumor uptake (UM-22B tumors; 1 h): 5.73±1.11 % ID/g
tumor uptake (UM-22B tumors; 2 h): 8.03±0.77 % ID/g
tracer uptake over the heart region (UM-22B tumors; 24 h): 8.58±0.81 % ID/g
tumor uptake (UM-22B tumors; 24 h): 8.07±1.01 % ID/g
absorbed dose, red bone marrow [3]: 6.14 mSv

— patent US10258701B2, “Labeled evans blue dye derivative for in vivo serum albumin labeling” (The United States of America, as represented by the …, priority 2015, dated 2019)
